Results as given in publication PMC12040169 (PLOS Biology, 2025).

Assay: in vitro
Conditions: human, hela cells, % viability

SMILES	viability at 28.5 h, 10 µM
CN1C(=O)CC2(C1=O)C(=O)N(CCN1C(=O)c3ccccc3C1=O)c1ccc(F)cc12 (centres unmarked) [CBK075451]	89.5%
CCn1ncc(CN2CCN(C(=S)Nc3ccccc3C(F)(F)F)CC2)c1C [CBK266968]	96.2%
CCOC(=O)c1sc(NC(=O)C2CCCO2)c(C(N)=O)c1C (centres unmarked) [CBK058830]	91.3%
Cc1ccccc1-c1nc2ccc(NC(=O)CCC(=O)O)cc2o1 [CBK269904]	93.4%
COc1cccc(OC)c1OCCN1CCNCC1 [CBK265089G]	90.7%
Nc1cc(=O)[nH]c(=O)n1CCc1ccccc1 [CBK269984]	86%
Cc1nc(CN2CCN(CCc3ccccc3)CC2)cs1 [CBK126457]	87.6%
CN(CC(=O)O/N=C(\N)c1ccccn1)S(=O)(=O)c1ccc(Br)cc1 [CBK268617]	96.9%
CC(C)S(=O)(=O)N1CCC(n2c(=O)[nH]c3ccccc32)CC1 [CBK149693]	101%
O=C(c1c(F)cccc1F)N1CCN(c2ncccn2)CC1 [CBK144517]	89.3%
C=CCn1c(Cc2csc(NC(=O)c3cnc(C)cn3)n2)n[nH]c1=S [CBK295319]	90.4%
Cc1cc(C)n(CC2CCCCN2CC(=O)NC(C)c2ccco2)n1 (centres unmarked) [CBK305331]	87.9%
CCOC(=O)Nc1ccc2c(c1)N(C(=O)CCN(C)C)c1ccccc1CC2 [CBK278193C]	89.9%
COc1ccc(-c2ccccc2NC(=O)C2CC(=O)N(Cc3cccc(F)c3)C2)cc1 (centres unmarked) [CBK285937]	89.3%
Cc1cc(-c2ccccc2)nn(CCN2CCOCC2)c1=O [CBK023022C]	88%
COc1ccc2[nH]c3c(c2c1)CCN(C(=O)CNCc1ccc(OC)c(OC)c1)C31CCN(CCOc2ccccc2)C1 (centres unmarked) [CBK076736T]	75%
COc1ccc(C(=O)Nc2nc3c(OC)ccc(C)c3s2)cc1 [CBK287615]	110%
CC1(C)CC(NC(=O)c2cc(Cn3ccc4ccccc43)[nH]n2)CCO1 (centres unmarked) [CBK307092]	87.7%
N#Cc1c(NC(=O)CN2CCN(Cc3ccccc3)CC2)sc2c1CCCC2 [CBK267969]	99.6%
O=C(Nc1nc2ccc(Br)cc2s1)C1CC2CCC1C2 (centres unmarked) [CBK026397]	88.8%
Cc1c(NC(=O)CSCc2ccc(Cl)cc2Cl)cccc1C(=O)O [CBK131704]	104%
COc1cc(C=CC(=O)O)ccc1OCc1cn2cc(Cl)ccc2n1 [CBK296722]	99.1%
CCSc1nnc(-c2cccnc2)n1Cc1ccccc1 [CBK076664]	84.4%

SMILES	viability at 28.5 h, 10 µM
COc1cccc(NC(=O)c2cnc(-c3ccc(Cl)cc3)c(-c3ccco3)c2)c1OC [CBK037428]	103%
OC/C=C/c1cnc2ccccc2c1 [CBK001749]	119%
OC(CN1CCC2(CC1)CC(O)c1ccccc1O2)c1ccc(-c2ccccc2)cc1 (centres unmarked) [CBK286347]	101%
O=C(c1ccncc1)N1CCN(S(=O)(=O)c2ccccc2[N+](=O)[O-])CC1 [CBK264196]	92.6%
O=C(Nc1ccc2[nH]ncc2c1)c1ccccc1Cl [CBK000191]	87.8%
CCc1nc2ccc(C(=O)NCCN3CCNC3=O)cn2c1N(CCN(C)C)CC1CC1 [CBK145469]	89.2%
COc1ccc(OC)c(C(O)CN2CCc3sccc3C2c2cccs2)c1 (centres unmarked) [CBK285532]	109%
Cc1n[nH]c(C)c1CNC(=O)c1cc2ccc(F)cc2[nH]1 [CBK283147]	89.4%
CCN(C)c1c(C)nc2c(OCc3cccc(Cl)c3)cccn12 [CBK147310]	100%
N#CC(CC(=O)O)C(Cc1ccccc1)c1ccccc1 (centres unmarked) [CBK286837]	107%
O=C1COc2ccccc2C/C=C/CC2(CCCN(C(=O)CCN3CCCC3)C2)CN1 (centres unmarked) [CBK292136]	102%
COc1cc(-c2nnc(SCC(=O)O)n2-c2ccccc2)cc(OC)c1OC [CBK131695]	104%
CCn1c(C(CC(C)C)NC(=O)C2CC2)nc2cccnc21 (centres unmarked) [CBK283736]	103%
CCNC(=O)Nc1ccc2ccc(-c3ccsc3)nc2n1 [CBK070699]	73.5%
COc1cc(C2NC(=O)N(CCc3ccccc3)C(c3ccccc3)=C2C(C)=O)ccc1O (centres unmarked) [CBK269024]	108%
O=C(CNC(=O)c1ccccc1)N/N=C/c1ccc(C(=O)O)cc1 [CBK261976]	102%
CC1C2CCCN2CCN1Cc1cccc(Oc2ccccc2)c1 (centres unmarked) [CBK262880]	94.9%
CN1C(=O)CC(NCc2ccc(S(N)(=O)=O)cc2)C1=O (centres unmarked) [CBK262352]	87.4%
Clc1ccc(CSc2nccnc2N2CCCC2)cc1 [CBK107177]	95.9%
O=C(O)CNS(=O)(=O)c1cc(Cl)c(Cl)cc1Cl [CBK266136]	96.6%
CCCc1c(O)n[nH]c1Cc1ccc(Cl)cc1 [CBK078564]	104%
CN(C)CCOC(=O)C1CCCCCN1C (centres unmarked) [CBK278175G]	97.8%
COC(=O)c1c(NC(=O)C(=O)NCc2cccnc2)sc2c1CCCC2 [CBK269170]	88.8%

SMILES	viability at 28.5 h, 10 µM
O=C(O)c1ccc(/C=N\NC(=O)C2COc3cc4ccccc4cc3O2)cc1 (centres unmarked) [CBK262792]	90.4%
CCNC(=O)c1cnc(-c2cccc(C(F)(F)F)c2)c(-c2cccc(CO)c2)c1 [CBK037557]	94.7%
COc1ccccc1-c1cn2ccnc2c(N(C)CCN(C)C)n1 [CBK066156]	97.5%
O=C(O)CCC(C(=O)O)N1C(=O)c2c(Cl)c(Cl)c(Cl)c(Cl)c2C1=O (centres unmarked) [CBK264308]	102%
COCCSc1nnc(NS(=O)(=O)Cc2ccccc2)s1 [CBK267535]	97.6%
O=C1NCCCC12CCN(Cc1ccc3ncccc3c1)CC2 [CBK284825]	91.4%
COc1ccc2[nH]c3c(c2c1)CCNC31CCN(CCC2CCCCC2)C1 (centres unmarked) [CBK040111T]	90.7%
O=C1C2C(c3ccc(F)cc3)NC(c3ccc(F)cc3)C1C(c1ccc(F)cc1)NC2c1ccc(F)cc1 (centres unmarked) [CBK261288]	110%
COc1cc(NC(=O)CN2C(=O)c3ccc([N+](=O)[O-])cc3C2=O)c(C(=O)O)cc1OC [CBK265109]	97.7%
O=C(Nc1cccc(Cl)c1Cl)c1cnc2n(c1=O)CCS2 [CBK287380]	95.1%
c1ccc(-c2nc(C3CCNCC3)n3ccncc23)cc1 [CBK035434]	100%
CC1CCc2c(sc3ncnc(SC(C)C(=O)OC4CCCCC4)c23)C1 (centres unmarked) [CBK265050]	104%
CCC(C)c1ccc(NC(C)C(=O)Nc2ccc3[nH]c(=O)[nH]c3c2)cc1 (centres unmarked) [CBK296694]	92.1%
C#CCOc1ccc(/C=C2/SC(=S)N(CCC(=O)O)C2=O)cc1 [CBK265667]	94.1%
O=C(NC(C(=O)N/N=C/c1cccc(O)c1)c1n[nH]c(=O)c2ccccc12)c1ccccc1 (centres unmarked) [CBK262853]	89%
O=C(CCc1nc(O)c2c3c(sc2n1)CCCC3)NCC(=O)Nc1ccccc1Br [CBK295348]	101%
O=C(c1ccc(O)nc1)N1CCN(Cc2cc(=O)n3ccsc3n2)CC1 [CBK306098]	86.3%
Fc1ccc2c(c1)[C@@H](Oc1cncc(NC3CCCNC3)n1)CCO2 (some centres unmarked) [CBK172256G]	92.6%
CCOC(=O)/C(C(=O)c1ccccc1)=C(/N)NCCO [CBK265621]	110%
COc1cc(Nc2nc(-c3c(OC)cccc3OC)cn3ccnc23)cc(OC)c1OC [CBK037395]	95.5%
CCC(=O)N1CCC(c2nc(Cc3cccs3)no2)C1 (centres unmarked) [CBK282968]	88.5%
O=c1ccc(-c2ccc(F)cc2)nn1CC1CCNCC1 [CBK284216]	86.5%
CC(=O)N(C)c1ncc(Br)cc1C(=O)N(C)C [CBK076533]	97.1%

SMILES	viability at 28.5 h, 10 µM
Cc1cc(NS(=O)(=O)c2ccc(NC(=O)C(c3ccccc3)c3ccccc3)cc2)no1 [CBK085112]	94%
NS(=O)(=O)c1ccc(NC(=O)CCCOc2ccc(Cl)cc2Cl)cc1 [CBK261536]	104%
c1ccc(C(NCc2cncs2)C2CCCC2)cc1 (centres unmarked) [CBK304812]	82.6%
Cc1nc2c(c(=O)[nH]1)CN(Cc1ccc(Cl)c(Cl)c1)CC2 [CBK283949]	88.7%
CCN1CCCC1CNC(=O)c1cc(Br)cnc1N1CCOCC1 (centres unmarked) [CBK076213]	87.1%
Cc1cccc(-c2csc3c(=O)[nH]c(N4CCC(C(=O)N5CCOCC5)CC4)nc23)c1 [CBK215644]	89.7%
Cc1cc(C(=O)N2CCC3(C/C=C/CCOc4ccccc4C(=O)NCCCNC3=O)CC2)no1 [CBK292155]	92.6%
Cc1cc(-c2cn(C)nc2C2CCCN2C(=O)CC(C)(C)C)on1 (centres unmarked) [CBK283453]	87.3%
CC(C)Nc1nccnc1Sc1nc[nH]n1 [CBK115205]	97.5%
O=C(CN1C(=O)C2C3C=CC(C3)C2C1=O)OCC(=O)c1ccccc1 (centres unmarked) [CBK265112]	100%
COc1ccnc(N2CCN(C(=O)c3ccc(C)n3C)CC2)n1 [CBK305803]	84.7%
CN1CCN(CC(=O)Nc2sc3c(c2C(=O)NCc2ccccc2)CCCC3)CC1 [CBK268207]	102%
COc1ccccc1CNc1nccc(-n2ccc(C)n2)n1 [CBK288611]	111%
CC(=O)N1CC[C@H]2NC(=O)CNC(=O)C3(CCCC[C@H]2C1)CCN(C(=O)c1ccc(C)nc1)CC3 [CBK292172]	94.7%
CCNc1cccnc1N1CCN(CCc2cc(C)c(O)c(C)c2)CC1 [CBK024361C]	108%
Cc1cc(NC(=O)Nc2cccc(Cl)c2C)no1 [CBK288245]	87.3%
O=C(CCc1nc2sc3c(c2c(=O)[nH]1)CCCC3)N1CCCC1 [CBK306069]	90.8%
CS(=O)(=O)N(CC(=O)N/N=C/c1ccncc1)c1ccccc1Br [CBK263911]	100%
Cc1nn(C)c(C)c1NC(=O)CN1CCN(c2ccccc2Cl)CC1 [CBK306058]	82.6%
COC(=O)c1c(NC(=S)NCc2ccc(S(N)(=O)=O)cc2)sc2c1CCC(C)C2 (centres unmarked) [CBK267039]	97.6%
